According to US6472351B1, “Herbicide” (Barrier Biotech Limited, priority 1998, dated 2002):

Tested on: ragwort
Assay: Replicated field trials 1997, ragwort control 0-10 score versus 2,4-D (Example 3)
Format: in vivo, Senecio Jacobaea
Details: for 0-10 Score, 0 = No Control; T1 + 42 / 0-10 Score, 0 = No Control; T1 + 14 / 0-10 Score, 0 = No Control; T1 + 28 / 0-10 Score, 0 = No Control; T1 + 1 / 0-10 Score, 0 = No Control; T1 + 7: l/ha 2,4-D standard; for 0-10 Score, 0 = No Control; T1 + 42: scored 02/09/97; for 0-10 Score, 0 = No Control; T1 + 28: scored 19/08/97
Description: In 1997 properly replicated field evaluations of the efficacy of the composition according to the invention as a herbicide were carried out and 3 trial sites were located where the composition was tested against the standard product, 2, 4-D applied at a dose of 3.0 l/ha to individual plants. The trials were designed as a randomised complete block but within each “plot” area, 10 ragwort plants for each growth stage (rosette & flowing stems) were tagged with numbered markers and these were treated with the appropriate compound. […] This method reduced the risk of excessive run-off if eight squirts had been applied in a single application. […] As with the larger plants in the laboratory tests, some degree of re-growth was noted on a few of the treated plants. After the last assessments had been made, some of these plants were retreated with a second application of BH 99 and the effect was compared with untreated plants after a further 4 weeks which data is presented in the results section below.
In all evaluations the composition BH 99 was used comprising:
was applied to plants using the same equipment. The ready-mixed formulated product was contained in a 5 liter polyethylene bottle to which was fitted with a Frapak CHS-5A trigger sprayer and dip tube. This equipment delivers 2.4 mls of spray for each full squeeze of the trigger and provides a very convenient method of application.
In the replicated field trials in 1997, the 2, 4-D treatments were applied using a Hardy (backpack) small plot sprayer fitted with a lance carrying a single F110-03 nozzle. Individual plants were sprayed at a forward speed of 1.6 m/s and a pressure of 2 bar to give an application volume of 200 l/ha. Dose of 2, 4-D applied by this method was 3.0 l/ha.
Replicated Field Trials, 1997: The efficacy of BH 99 was tested against ragwort at the rosette and flowering stages at Shropham and Barnham sites but only against the rosette stage at Hockham since no flowering stems were presented.

[1] = Barnham, Flower, applied T1 23/07/97
[2] = Barnham, Rosette, applied T1 23/07/97
[3] = Hockham, Rosette, applied T1 25/07/97
[4] = flowering stage, standard at 3.0 l/ha, mean of n = 2 sites, 0-10 score
[5] = rosette stage, standard at 3.0 l/ha, mean of n = 3 sites, 0-10 score

O=C(O)COc1ccc(Cl)cc1Cl [2,4-D, 2,4-D]
Time until full activity manifest (3.0 l/ha, days after application): 42 days | 0-10 Score, 0 = No Control; T1 + 42 [1]: 9.4 | 0-10 Score, 0 = No Control; T1 + 14 (Barnham, Flower, applied T1 23/07/97, scored 08/08/97): 7.3 | 0-10 Score, 0 = No Control; T1 + 28 [1]: 8.9 | 0-10 Score, 0 = No Control; T1 + 1 (Barnham, Flower, applied T1 23/07/97, scored 24/07/97): 0.3 | 0-10 Score, 0 = No Control; T1 + 7 (Barnham, Flower, applied T1 23/07/97, scored 30/07/97): 1 | 0-10 Score, 0 = No Control; T1 + 42 [2]: 9.9 | 0-10 Score, 0 = No Control; T1 + 14 (Barnham, Rosette, applied T1 23/07/97, scored 08/08/97): 4.8 | 0-10 Score, 0 = No Control; T1 + 28 [2]: 9.1 | 0-10 Score, 0 = No Control; T1 + 1 (Barnham, Rosette, applied T1 23/07/97, scored 24/07/97): 0.1 | 0-10 Score, 0 = No Control; T1 + 7 (Barnham, Rosette, applied T1 23/07/97, scored 30/07/97): 0.8 | 0-10 Score, 0 = No Control; T1 + 7 (Hockham, Rosette, applied T1 25/07/97, scored 01/08/97): 0.4 | 0-10 Score, 0 = No Control; T1 + 42 [3]: 9.8 | 0-10 Score, 0 = No Control; T1 + 14 (Hockham, Rosette, applied T1 25/07/97, scored 07/08/97): 0.8 | 0-10 Score, 0 = No Control; T1 + 28 [3]: 5.2 | 0-10 Score, 0 = No Control; T1 + 1 (Hockham, Rosette, applied T1 25/07/97, scored 26/07/97): 0.1 | Mean Score for Ragwort Control When Treated at the Flowering Stage, 1 DAT [4]: 0.3 | Mean Score for Ragwort Control When Treated at the Flowering Stage, 7 DAT [4]: 0.8 | Mean Score for Ragwort Control When Treated at the Flowering Stage, 14 DAT [4]: 4.9 | Mean Score for Ragwort Control When Treated at the Flowering Stage, 28 DAT [4]: 7.4 | Mean Score for Ragwort Control When Treated at the Flowering Stage, 42 DAT [4]: 8.4 | Mean Score for Ragwort Control When Treated at the Rossette Stage, 1 DAT [5]: 0.1 | Mean Score for Ragwort Control When Treated at the Rossette Stage, 7 DAT [5]: 0.5 | Mean Score for Ragwort Control When Treated at the Rossette Stage, 14 DAT [5]: 2.1 | Mean Score for Ragwort Control When Treated at the Rossette Stage, 28 DAT [5]: 6.9 | Mean Score for Ragwort Control When Treated at the Rossette Stage, 42 DAT [5]: 9.4
